According to patent US20200345008A1, “Increased grape yields with brassinosteroid application” (priority 2019, published 2020):

Legend:
[1] = system: grapes (var. Scarlet Royal); experiment: Experiment 2: HBR spray application on Scarlet Royal grapes; assay type: in vivo; conditions: for berry hue / cluster color / soluble solids: evaluations Days 54-97; for ripening responses: ethephon standard treatment (Day 45), versus untreated check
Description: Homobrassinolide (HBR) was applied on grapes (var. Scarlet Royal) at late bloom (Day 0), or at late bloom (Day 0) and again at approximately 1 week after berry set (Day 7). Grapes were approximately 3 mm in diameter at Day 0 and 6 mm in diameter at Day 7. HBR was applied at rates of 0.5 ppm/aiA, 1.0 ppm/aiA, and 2.0 ppm/aiA. Spray applications were made using a backpack mistblower to simulate commercial airblast applications at 100 gpa. Controls were an untreated group, and a group that received the standard treatment with Ethephon approximately two weeks after color break (Day 45). Evaluations were made at Days 54, 66, 75, 82, 90, and 97. All treated groups also received Latron B1956 which was added to each tank mix as a surfactant (0.125% v/v). Soluble solids, cluster color, and berry hue were enhanced by HBR and the ethephon standard treatment. […] Results are illustrated in Table 3 (FIG. 4).

[2] = system: grapes of the variety Flame Seedless; assay type: in vivo
Description: Treatment (HBR) was twice applied to grapes of the variety Flame Seedless. Treatments consisted of either HBR or ProGibb (ProGibb 4%, a plant growth regulator commonly used on table grapes for berry thinning and/or increasing berry size). At the first application (Day 0) the grapes were approximately 3 mm in diameter. The second application was seven days later (Day 7) when the grapes were approximately 6 mm in diameter. The HBR was applied with a backpack mist blower at a rate if 100 gallons per acre. Grapes were evaluated for Cluster Color Rating and Cluster Color Intensity (Hue) on about Day 65 by comparing test subjects with the control of condition 1. The same data set was analyzed for berry weight, berry firmness, Brix units, and phytotoxicity.

grapes = conditions: Lenahan et al., 2006; cited from earlier work
[3] = two applications, or single application of 1.0 or 2.0 ppm/aiA, versus single application of 0.5 ppm/aiA HBR
[4] = HBR on Day 0 at 2.5 ppm/aiA, versus control, evaluated about Day 65

Row | Structure (SMILES) | berry hue ([1]; Scarlet Royal) | cluster color ([1]; Scarlet Royal) | soluble solids ([1]; Scarlet Royal) | efficacy ranking of treatments ([1]; double spray of 2 ppm ai HBR, compared to the ethephon standard treatment) | ripening responses ([1]; double spray of 2 ppm ai HBR) | crop injury ([1]; in vivo) | rate response ([1]; single spray timing treatments (0.5, 1.0, 2.0 ppm/aiA) versus untreated check) | hue [1, 3] | percentages of clusters of color [1, 3] | soluble solids and Brix degrees [1, 3] | degrees Brix of the grapes ([2]; HBR on Day 0) | color intensity per reddish cluster [2, 4] | percentage of clusters per plot that were noticeably reddish [2, 4] | color intensity within each identified reddish cluster ([2]; HBR treatment, versus control) | percentage of reddish grapes within each identified reddish cluster ([2]; HBR treatment, versus control) | phytotoxicity ([2]; in vivo) | firmness of grapes (grapes) | crop injury ([1]; all treatments, Scarlet Royal)
1 | CC[C@@H](C(C)C)C(O)C(O)[C@@H](C)[C@H]1CC[C@H]2[C@@H]3COC(=O)[C@H]4C[C@H](O)[C@H](O)C[C@]4(C)[C@H]3CC[C@]12C (stereo in doubt) [HBR, homobrassinolide] | enhanced | enhanced | enhanced | most efficacious treatment | significantly more effective than the untreated check | No crop injury was observed | positive rate response | greater hue | increased percentages of clusters of color | increased soluble solids and Brix degrees | tended to increase | more intense color per reddish cluster than control | increased the percentage of clusters per plot that were noticeably reddish | increased the color intensity | increased the percentage of reddish grapes | no observed phytotoxicity |  | 
2 | C=C1C[C@]23C[C@@]1(O)CC[C@H]2[C@@]12C=C[C@H](O)[C@@](C)(C(=O)O1)[C@H]2[C@@H]3C(=O)O [GA3, gibberellic acid] |  |  |  |  |  |  |  |  |  |  |  |  |  |  |  |  | increase firmness | 
3 | O=P(O)(O)CCCl [ethephon, Ethephon, reference compound] | enhanced | enhanced | enhanced |  | significantly more effective than the untreated check |  |  |  |  |  |  |  |  |  |  |  |  | No crop injury was observed
